Measurements published in patent EP0175171A2, “Use of 3,7,11,15-tetramethyl-2,4,6,10,14-hexadecapentaenoic acid for enhancing the effect of anti-tumour agents” (Eisai Co., Ltd., priority 1984, dated 1986).
In brackets after ≈: the same amount, converted by molar mass. Counter-ions that a name gives are not always drawn.

Assays:
[1] = tested on: HeLa.S3 cell; test: Enhancement of cytocidal effect: colony formation of HeLa S3 cells, known carcinostatic drug added simultaneously with the compound of the present invention, 7 days; type: cell-based, human; details: for enhancement of the cytocidal effect of a carcinostatic drug: conclusion in words from the figures of Table 2 (CPM by the S9 mix protocol)
Experimental: Effect of the simultaneous use of a known carcinostatic agent and the compound (I) (Enhancement of cytocidal effect) • (1) Experimental material and procedure • ① Cell: Epithelical cell from human uterocervical cancer, HeLa.S3 cell • ② Cultivation: The cell was cultivated using a culture fluid obtained by adding 10 parts of fetal calf serum to 90 parts of Eagles Minimum Essential Medium in an incuvator having a carbon dioxide concentration controlled to 5% at 37°C. • ③ Drug: The compound of the present invention was added as a solution in dimethyl sulfoxide(DMSO) of a final DMSO concentration of 0.1% to the culture fluid. The clinical injections as shown in Table 1 were added to the culture fluid as a known carcinostatic drug. […] After the cultivation for 7 days, the cells were fixed with methanol and subjected to Giemsa's staining, followed by calculation of the number of colonies containing at least 20 cells under a stereomicroscope. The concentration (ng/mℓ) of the carcinostatic drug required to decrease the ratio of the number of colonies of a treated group to that of an untreated group (control) to 50% were determined and are shown as "IC50".

[2] = tested on: HeLa.S3 cell; test: cells; details: Homo sapiens
Experimental: The clinical injections as shown in Table 1 were added to the culture fluid as a known carcinostatic drug. [formula] • ④ Experimental procedure: 150 epithelical cells from human uterocervical cancer (HeLaS3 cell) were planted in each plastic dish of a diameter of 60 mm. […] After the cultivation for 7 days, the cells were fixed with methanol and subjected to Giemsa's staining, followed by calculation of the number of colonies containing at least 20 cells under a stereomicroscope. The concentration (ng/mℓ) of the carcinostatic drug required to decrease the ratio of the number of colonies of a treated group to that of an untreated group (control) to 50% were determined and are shown as "IC50".

[3] = Toxicological test, oral administration for 14 days; type: in vivo; details: female ICR mice, orally, 14 days, 40, 200 or 400 mg/kg/day
Experimental: The compound of the present invention, 3,7,11,15-tetramethyl-2,4,6,10,14-hexadecapentaenoic acid, was administered orally to each group consisting of six female ICR mice for 14 days at a dosage of 40, 200 or 400 mg/kg/day, respectively, to observe changes in the weight, the mortality or the like.

[4] = Homo sapiens, HeLa S3, compound of the present invention 0 M; listed as 1): based on case where both compound and drug are 0, read-out: IC50 (ng/ml) 0 a)
[5] = Homo sapiens, HeLa S3, compound of the present invention 0 M; listed as 2): based on case where drug is 0 at the same compound concentration, read-out: IC50 (ng/ml) 0 a)
[6] = Homo sapiens, HeLa S3, compound of the present invention 3.2×10^-5 M; listed as 1): based on case where both compound and drug are 0, read-out: IC50 (ng/ml) 3.2×10^-5 d)
[7] = Homo sapiens, HeLa S3, compound of the present invention 3.2×10^-5 M; listed as 2): based on case where compound is 3.2×10^-5 M and drug is 0, read-out: IC50 (ng/ml) 3.2×10^-5 d)
[8] = Homo sapiens, HeLa S3, compound of the present invention 10^-5 M; listed as 1): based on case where both compound and drug are 0, read-out: IC50 (ng/ml) 10^-5 c)
[9] = Homo sapiens, HeLa S3, compound of the present invention 10^-5 M; listed as 2): based on case where compound is 10^-5 M and drug is 0, read-out: IC50 (ng/ml) 10^-5 c)
[10] = Homo sapiens, HeLa S3, compound of the present invention 10^-6 M; listed as 1): based on case where both compound and drug are 0, read-out: IC50 (ng/ml) 10^-6 b)
[11] = Homo sapiens, HeLa S3, compound of the present invention 10^-6 M; listed as 2): based on case where compound is 10^-6 M and drug is 0, read-out: IC50 (ng/ml) 10^-6 b)

Compound	IC50 [1, 4] [ng/mL]	IC50 [1, 5] [ng/mL]	IC50 [1, 6] [ng/mL]	IC50 [1, 7] [ng/mL]	IC50 [1, 8] [ng/mL]	IC50 [1, 9] [ng/mL]	IC50 [1, 10] [ng/mL]	IC50 [1, 11] [ng/mL]	enhancement of the cytocidal effect of a carcinostatic drug [1]	other results
O=c1[nH]cc(F)c(=O)[nH]1 [5-FU, fluorouracil]	648	648	267	347	329	369	375	388	particularly remarkable	
Cc1ncc(CNC(=O)N(CCCl)N=O)c(N)n1 [ACNU, minustine hydrochloride]	135	135	102	136	146	150	143	147		
COc1cccc2c1C(=O)c1c(O)c3c(c(O)c1C2=O)C[C@@](O)(C(=O)CO)C[C@@H]3O[C@H]1C[C@H](N)[C@H](O)[C@H](C)O1 [ADM, doxorubicin hydrochloride]	3.79	3.79	1.88	3.14	2.43	4.15	3.1	3.51		
Nc1ccn([C@@H]2O[C@H](CO)[C@@H](O)[C@@H]2O)c(=O)n1 [Ara-C, cytarabine]	10.9	10.9	6.25	11.6	11.4	12.4	11.9	12		
O=P1(N(CCCl)CCCl)NCCCO1 (centres unmarked) [CPM, cyclophosphamide]									particularly remarkable	IC50 ([2]; HeLa S3, read-out: IC50 (ng/ml) 0 a), S9 mix protocol; compound of the present invention 0 M; listed as 1): based on case where both compound and drug are 0): 4210 ng/mL (≈ 16.1 µM); IC50 ([2]; HeLa S3, read-out: IC50 (ng/ml) 0 a), S9 mix protocol; compound of the present invention 0 M; listed as 2): based on case where drug is 0 at the same compound concentration): 4210 ng/mL (≈ 16.1 µM); IC50 ([2]; HeLa S3, read-out: IC50 (ng/ml) 3.2×10^-5 d), S9 mix protocol; compound of the present invention 3.2×10^-5 M; listed as 1)): 1220 ng/mL (≈ 4.69 µM); IC50 ([2]; HeLa S3, read-out: IC50 (ng/ml) 3.2×10^-5 d), S9 mix protocol; compound of the present invention 3.2×10^-5 M; listed as 2)): 2300 ng/mL (≈ 8.82 µM); IC50 ([2]; HeLa S3, read-out: IC50 (ng/ml) 10^-5 c), S9 mix protocol; compound of the present invention 10^-5 M; listed as 1)): 1330 ng/mL (≈ 5.08 µM); IC50 ([2]; HeLa S3, read-out: IC50 (ng/ml) 10^-5 c), S9 mix protocol; compound of the present invention 10^-5 M; listed as 2)): 1970 ng/mL (≈ 7.56 µM); IC50 ([2]; HeLa S3, read-out: IC50 (ng/ml) 10^-6 b), S9 mix protocol; compound of the present invention 10^-6 M; listed as 1)): 3360 ng/mL (≈ 12.9 µM); IC50 ([2]; HeLa S3, read-out: IC50 (ng/ml) 10^-6 b), S9 mix protocol; compound of the present invention 10^-6 M; listed as 2)): 3160 ng/mL (≈ 12.1 µM)
COC(COC(N)=O)C1=C(N2CC2)C(=O)C(C)=C(N2CC2)C1=O (centres unmarked) [CQ, carboquone]	0.339	0.339	0.076	0.131	0.242	0.275	0.273	0.253	particularly remarkable	
CO[C@@]12[C@H](COC(N)=O)C3=C(C(=O)C(C)=C(N)C3=O)N1C[C@@H]1N[C@@H]12 [MMC, mitomycin]	1.5	1.5	0.4	0.84	0.74	0.82	1.05	1.06	particularly remarkable	
Cc1c(N)nc([C@H](CC(N)=O)NC[C@H](N)C(N)=O)nc1C(=O)N[C@H](C(=O)N[C@H](C)[C@@H](O)[C@H](C)C(=O)N[C@H](C(=O)NCCc1nc(-c2nc(C(=O)NCCCN[C@@H](C)c3ccccc3)cs2)cs1)[C@@H](C)O)[C@@H](O[C@@H]1O[C@@H](CO)[C@@H](O)[C@H](O)[C@@H]1O[C@H]1O[C@H](CO)[C@@H](O)[C@H](OC(N)=O)[C@@H]1O)c1c[nH]cn1.O=S(=O)(O)O [PEP, pepleomycin sulfate]									particularly remarkable	
S=P(N1CC1)(N1CC1)N1CC1 [Thio-TEPA, Thio TEPA]										IC50 ([1]; Homo sapiens, HeLa S3, read-out: IC50 (ng/ml) 0 a), compound of the present invention 0 M; 1): based on case where both compound and drug are 0): 311 ng/mL; IC50 ([1]; Homo sapiens, HeLa S3, read-out: IC50 (ng/ml) 0 a), compound of the present invention 0 M; listed as 2): based on case where drug is 0 at the same compound concentration): 311 ng/mL; IC50 ([1]; Homo sapiens, HeLa S3, read-out: IC50 (ng/ml) 3.2×10^-5 d), compound of the present invention 3.2×10^-5 M; 2): based on case where compound is 3.2×10^-5 M and drug is 0): 244 ng/mL; IC50 ([1]; Homo sapiens, HeLa S3, read-out: IC50 (ng/ml) 3.2×10^-5 d), compound of the present invention 3.2×10^-5 M; listed as 1): based on case where both compound and drug are 0): 274 ng/mL; IC50 ([1]; Homo sapiens, HeLa S3, read-out: IC50 (ng/ml) 10^-5 c), compound of the present invention 10^-5 M; listed as 1): based on case where both compound and drug are 0): 299 ng/mL; IC50 ([1]; Homo sapiens, HeLa S3, read-out: IC50 (ng/ml) 10^-5 c), compound of the present invention 10^-5 M; listed as 2): based on case where compound is 10^-5 M and drug is 0): 319 ng/mL; IC50 ([1]; Homo sapiens, HeLa S3, read-out: IC50 (ng/ml) 10^-6 b), compound of the present invention 10^-6 M; 2): based on case where compound is 10^-6 M and drug is 0): 291 ng/mL; IC50 ([1]; Homo sapiens, HeLa S3, read-out: IC50 (ng/ml) 10^-6 b), compound of the present invention 10^-6 M; listed as 1): based on case where both compound and drug are 0): 274 ng/mL
CC[C@]1(O)C[C@H]2CN(CCc3c([nH]c4ccccc34)[C@@](C(=O)OC)(c3cc4c(cc3OC)N(C=O)[C@H]3[C@@](O)(C(=O)OC)[C@H](OC(C)=O)[C@]5(CC)C=CCN6CC[C@]43[C@@H]65)C2)C1 [VCR, vincristine sulfate]	5.5	5.5	2.63	5.65	6.38	7.7	7.44	7.45		
CC(C)=CCCC(C)=CCCC(C)=CC=CC(C)=CC(=O)O [compound of the present invention, 3,7,11,15-tetramethyl-2,4,6,10,14-hexadecapentaenoic acid]									synergisticly enhances the cytocidal effect of a carcinostatic drug	mortality [3]: No mice died
bleomycin hydrochloride [BLM]									particularly remarkable	
